Reference: patent publication US6444454B1, “Method for increasing the gene expression of saccharose synthase” (Forschungszentrum Julich GmbH, priority 1997, dated 2002)

Experiments:
Format in all cases: biochemical
Saccharose Synthase [1] = biological target: T1, Saccharose Synthase (Solanum tuberosum, UniProt P10691); assay: acceptance of different NDP's in saccharose splitting; conditions: NDP 1.6 mM, saccharose 500 mM, 0.035 U enzyme, pH 7.6, 30° C.
T1 construct: made in house; host or cells: Saccharomyces cerevisiae strain 22574d, plasmid pDRSuSy (pDR195, proton-ATPase promoter)
Description: Initially the acceptance of the recombinant saccharose synthase for different NDP's in saccharose splitting was investigated. The reaction conditions was as follows: [table] The reactions with different NDP's were carried out at a temperature of 30° C.

Saccharose Synthase [2] = biological target: T1, Saccharose Synthase; assay: Michaelis-Menten-Kinetics of saccharose splitting with UDP; conditions: UDP 1.6 mM, 14 mU enzyme, pH 7.6, 30° C., 10 minutes
Description: In addition, the Michaelis-Menten-Kinetics of the saccharose splitting with the recombinant saccharose synthase with UDP as a function of saccharose was determined.
The reaction condition for this were as follows:
The reactions were carried out at a temperature of 30° C.; the reaction time amounted in each case to 10 minutes.
In FIG. 5, the Michaelis-Menten-Kinetics of saccharose synthase as a function of saccharose concentration is shown. […] The concentrations of more than 600 mM saccharose substrate excess limiting sets in.

Saccharose Synthase [3] = biological target: T1, Saccharose Synthase; assay: splitting of disaccharides with UDP; conditions: disaccharide 250 mM, UDP 2 mM, 24 hours at 30° C.
Description: For the synthase of UDP-2-Desoxyglucose and UDP-N-Acetylglucoseamine, the following reaction composition is used. [table] The reaction mixture is incubated for 24 hours at 30° C. and the reaction stopped at 95° over a period of 5 minutes.

T1 sequence (P10691 whole entry): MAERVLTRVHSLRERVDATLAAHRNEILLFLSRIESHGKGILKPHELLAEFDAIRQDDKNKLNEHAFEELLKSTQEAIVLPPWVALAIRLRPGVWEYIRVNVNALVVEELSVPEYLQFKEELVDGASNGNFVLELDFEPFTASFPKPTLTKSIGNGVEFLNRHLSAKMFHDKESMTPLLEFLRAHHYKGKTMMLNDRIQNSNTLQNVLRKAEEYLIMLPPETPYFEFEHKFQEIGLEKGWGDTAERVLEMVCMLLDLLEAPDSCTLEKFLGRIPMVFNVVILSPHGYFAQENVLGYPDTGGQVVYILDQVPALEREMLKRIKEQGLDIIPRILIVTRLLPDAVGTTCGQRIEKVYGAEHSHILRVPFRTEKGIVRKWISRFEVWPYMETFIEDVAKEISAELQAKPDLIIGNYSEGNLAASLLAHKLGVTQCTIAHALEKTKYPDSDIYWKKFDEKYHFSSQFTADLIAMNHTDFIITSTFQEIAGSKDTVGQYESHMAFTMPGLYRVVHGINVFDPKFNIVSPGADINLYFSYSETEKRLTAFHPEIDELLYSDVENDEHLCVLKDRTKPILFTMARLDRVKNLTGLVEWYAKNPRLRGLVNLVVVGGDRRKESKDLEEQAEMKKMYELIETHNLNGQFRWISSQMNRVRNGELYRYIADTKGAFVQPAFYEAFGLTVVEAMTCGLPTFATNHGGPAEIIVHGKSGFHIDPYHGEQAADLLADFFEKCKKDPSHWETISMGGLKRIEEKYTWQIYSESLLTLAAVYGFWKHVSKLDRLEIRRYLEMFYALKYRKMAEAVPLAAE

acceptance of NDP's in saccharose splitting as a function of reaction time (sequence) (Saccharose Synthase [1]) | Compound | also measured
UDP>ADP=TDP>CDP>GDP | Nc1ncnc2c1ncn2[C@@H]1O[C@H](COP(=O)(O)OP(=O)(O)O)[C@@H](O)[C@H]1O [ADP] | –
UDP>ADP=TDP>CDP>GDP | Nc1ccn([C@@H]2O[C@H](COP(=O)(O)OP(=O)(O)O)[C@@H](O)[C@H]2O)c(=O)n1 [CDP] | –
UDP>ADP=TDP>CDP>GDP | Nc1nc2c(ncn2[C@@H]2O[C@H](COP(=O)(O)OP(=O)(O)O)[C@@H](O)[C@H]2O)c(=O)[nH]1 [GDP] | –
UDP>ADP=TDP>CDP>GDP | Cc1cn([C@H]2C[C@H](O)[C@@H](COP(=O)(O)OP(=O)(O)O)O2)c(=O)[nH]c1=O [TDP] | –
UDP>ADP=TDP>CDP>GDP | O=c1ccn([C@@H]2O[C@H](COP(=O)(O)OP(=O)(O)O)[C@@H](O)[C@H]2O)c(=O)[nH]1 [UDP] | –
– | OC[C@H]1O[C@@](CO)(O[C@H]2O[C@H](CO)[C@@H](O)[C@H](O)[C@H]2O)[C@@H](O)[C@@H]1O [saccharose] | Km (Saccharose Synthase [2]): 66 mM; saccharose concentration at which substrate excess limiting sets in (Saccharose Synthase [2]): more than 600 mM
– | OC[C@H]1OC(CO)(O[C@@H]2C[C@@H](O)[C@H](O)[C@@H](CO)O2)[C@@H](O)[C@@H]1O (stereo partly drawn) [two desoxy saccharose, 2-desoxysaccharose] | disaccharide split off (Saccharose Synthase [3]; 0.11 U saccharose synthase): 5.9%
– | N-acetyl saccharosamine | disaccharide converted (Saccharose Synthase [3]; 1.25 U of the enzyme): 12.4%
